The values that follow come from publication PMC11513924, “Addressing the Intracellular Vestibule of the Plasmodial Lactate Transporter PfFNT by p-Substituted Inhibitors Amplifies In Vitro Activity” (Journal of Medicinal Chemistry, 2024).

For orientation: Ki means the dissociation constant of the complex between target and ligand, obtained from inhibition or displacement. As a reminder, the chromatographic logD is lipophilicity estimated from chromatographic retention. Read a low chromatographic logD as a more hydrophilic compound. The term EC50 denotes the concentration needed to bring the measured effect to its halfway point. The IC50 is the concentration needed to halve the response being measured.

Where two headings read alike, the source gives them in different places. Bounds are passed on as bounds.

For series [1], the target named is T1, PfFNT (Plasmodium falciparum, UniProt O77389).
T1 construct: expressed in transfected cells; membranes solubilized
T1 sequence (O77389 1-309): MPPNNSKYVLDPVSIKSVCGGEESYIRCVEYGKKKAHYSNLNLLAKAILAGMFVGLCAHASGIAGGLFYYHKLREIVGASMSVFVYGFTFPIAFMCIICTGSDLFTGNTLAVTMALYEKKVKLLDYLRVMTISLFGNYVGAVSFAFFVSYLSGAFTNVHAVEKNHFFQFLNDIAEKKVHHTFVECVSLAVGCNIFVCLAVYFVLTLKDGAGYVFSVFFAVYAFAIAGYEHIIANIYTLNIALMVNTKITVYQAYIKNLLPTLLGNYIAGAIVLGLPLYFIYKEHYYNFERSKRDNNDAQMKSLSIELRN
Briefly: Fluorescence cross-correlation spectroscopy (FCCS) competition binding to solubilized PfFNT-GFP. As to conditions: competition against BH267.meta-DY647 tracer, Cheng Prusoff; read-out: Ki (FCCS, protein). The method, then:
FCCS measurements were conducted and analyzed as before.[20],[30] Briefly, membranes of stably transfected cells expressing PfFNT with a C-terminal GFP (green) were solubilized. BH267.meta 2 fused with DY647 (red) was used as a tracer to monitor the binding of compounds in a competition assay. Assays were done in […] glass bottom plates (cat. no. PS96B-G175, SWISSCI, Switzerland) using a plate reader (Insight, Evotec Technologies, Germany) fitted with a U-Apo300 40× water immersion lens, NA 1.15 (Olympus, Japan). Excitation was done with an argon-ion laser (488 nm) and a helium–neon laser (633 nm). Fluorescence fluctuations were recorded 10 times for 5 s per sample and fitted using FCS+ plus Analyze (PerkinElmer software). Initially, IC50 values were determined from the concentration of the dual labeled complex titrated against a competitor in a range of 100 pM to 100 μM (Figure S1). Then, Ki values were calculated using the Cheng Prusoff equation[31] based on the previously determined KD value for the BH267.meta-DY647 tracer.[20]

In series [2] the test system is Plasmodium falciparum 3D7 parasites. The experiment in a line: P. falciparum 3D7 culture growth assay in erythrocytes (in vitro activity). As to conditions: 50 nM compound. Format: cell-based. As for the experimental part:
The parasitemia was measured using an LSR II FACS (BD Biosciences) as described.[34],[35] Growth was assessed as % of untreated control. EC50 curves were plotted using Graph Pad Prism.
Transport assays in yeast were done in triplicate biological replicates. At least nine technical replicates were measured around the IC50 value, concentrations with no or full inhibition were determined from at least three technical replicates. […] IC50 and EC50 curves were fitted by the Hill equation with variable slope (Graph Pad Prism 10). Error bars denote ± SEM (for n ≥ 3) or ± range (for n = 2). […] Cytotoxicity was determined from biological triplicates; error is shown as SEM.

A short description of series [3]: Lipophilicity log D7.4 by HPLC (OECD guideline). The note with it: RP-8 HPLC column (ZORBAX Eclipse XDB-C8), pH 7.4. It counts as physicochemical. As for the experimental part:
Lipophilicity was determined according to the OECD Guidelines for the Testing of Chemicals no. […]. Briefly, the test compounds plus 9 standards (4-acetylpyridine, acetanilide, acetophenone, methyl benzoate, ethyl benzoate, benzophenone, phenyl benzoate, diphenyl ether, triphenylamine) were separated by HPLC with UV detection at 220 nm (Waters HPLC 1525 with tunable absorbance detector 486) using an RP-8 column (Agilent Technologies ZORBAX Eclipse XDB-C8 4.6 × 150 mm, 5 μm) at 20 °C. Eluents A (20 mM ammonium formate, pH 7.4) and B (methanol) were used to generate a gradient profile of 80% A–100% B (0–35 min), 100% B (35–37 min), 100% B–80% A (37–42 min), and 80% A (42–55 min) at a flow rate of 0.8 mL min^–1. The dead time was determined via the injection peak caused by the solvent. The log D7.4 values were calculated by correlating the capacity factors with the known values of the standards via polynomial fitting.

Series [4] has as its system albumin. Briefly: Plasma protein (albumin) binding by ultracentrifugation. The note with it: pooled human plasma. It counts as in vitro ADME. As for the experimental part: (§1) Clearance, half-life and plasma protein binding were assayed at TGC LifeScience, Kolkata, India, as described before.[36] Test compounds were incubated in duplicate in 96-well plates at 1 μM concentration with pooled human liver microsomes in 0.1 M phosphate buffer, pH 7.4 (0.4 mg mL^–1 final protein concentration; XenoTech, Lenexa, KS) in the presence and absence of 1 mM NADPH. Metabolism reactions were stopped by addition of 300 μL of ice-cold acetonitrile containing carbamazepine at 0.0236 μg mL^–1 as an internal standard, collection and analysis of the supernatant by LC–MS/MS (Agilent Rapid Resolution HPLC, AB SCIEX 4500 MS). The relative loss of the test compound over time was used to determine the first order rate constant for calculation of the in vitro intrinsic clearance and half-life.[37] Plasma protein binding was determined by ultracentrifugation from pooled human plasma spiked with 5 μM test compound. Aliquots were transferred immediately (total plasma concentration) or after 1 h at 37 °C (protein bound fraction) to ice-cold acetonitrile containing 0.0236 μg mL^–1 carbamazepine as an internal standard, ultracentrifuged for 4 h at 37 °C (Beckman Optima L-80XP), and analyzed by LC–MS/MS (Agilent Rapid Resolution HPLC, AB SCIEX 4500 QTRAP MS).

The nature of series [5]: Microsomal clearance and half-life. Format: in vitro ADME, human. The note with it: 1 μM compound, 0.4 mg mL^–1 protein. The method, then:
as §1

The subject of series [6] is Plasmodium falciparum 3D7 parasites. The note with it: read-out: EC50 (in vitro, 3D7), cited from earlier work.
Series [7] has as its system P. berghei. On the set-up: method as in PMID 37428074. The note with it: all dosing regimens; cited from earlier work.
Series [8] concerns the target T1, PfFNT. The note with it: 14C-lactate transport, PfFNT wild type; ref Golldack[4] et al. 2017; read-out: IC50 (transport, yeast); cited from earlier work.

Regarding `O=C(/C=C(\O)C(F)(F)C(F)(F)F)c1cccnc1` [compound 2, 4,4,5,5,5-Pentafluoro-3-hydroxy-1-(pyridin-3-yl)pent-2-en-1-one, reference compound], the Ki in series [1] turned out to be 35 ± 10 nM. In addition, the activity at 0.05 µM in series [2] (Plasmodium falciparum, 3D7, Erythrocyte, 48 h, % of untreated control, read-out: % Growth at 50 nM (in vitro, 3D7)) is > 90%. Further, the inhibition at 0.05 µM in series [2] (Plasmodium falciparum, 3D7, Erythrocyte, 100 minus % growth, read-out: inhibitory activity at 50 nM (in vitro, 3D7)) was < 10%. The compound further gave a chromatographic logD in series [3] of 1.75. Moreover, the “unbound fraction in plasma” value in series [4] is recorded as 8.76%. This compound registered an albumin binding in series [4] (5 μM) of 91.24%. Also, the “human liver microsomes Clint” value in series [5] is reported as 3.98 mL min^–1 kg^–1. The half-life at 1 µM in series [5] (human, pooled human liver microsomes, pH 7.4, read-out: human liver microsomes t1/2) was found to be 5.8 h. Besides, the half-maximal effective concentration (EC50) in series [6] (ref Walloch[6] et al. 2020) is 240 ± 10 nM. In series [7], the parasites eliminated was > 99.7%.
For “MMV007839 [compound 1, reference compound]”, the inhibition constant (Ki) in series [1] amounted to 83 ± 33 nM. Moreover, the “% Growth at 50 nM (in vitro, 3D7)” value in series [2] (% of untreated control) is reported as > 90%. Also, the “inhibitory activity at 50 nM (in vitro, 3D7)” value in series [2] (100 minus % growth) is < 10%. The IC50 in series [8] was 170 ± 10 nM. In series [6] (ref Golldack[4] et al. 2017), the EC50 was 140 ± 10 nM.
